EC50 and IC50 data for 27 compounds are collected here from patent US5463071A, “5-membered heterocyclic compounds, processes for preparing them and pharmaceutical compositions containing these compounds” (Dr. Karl Thomae GmbH, priority 1991, dated 1995).

The subject of assay [1] is collagen-induced platelet aggregation in platelet-rich plasma. Description: Antithrombotic activity: inhibition of collagen-induced thrombocyte (platelet) aggregation, Born and Cross method. Particulars: Homo sapiens, 10 minutes preincubation at 37° C. It counts as cell-based, healthy volunteers (human). The protocol: 2. Antithrombotic activity Method The thrombocyte aggregation is measured using the Born and Cross method (J. Physiol. 170: 397 (1964)) in platelet-rich plasma taken from healthy volunteers. To inhibit coagulation the blood is mixed with 3.14% sodium citrate in a ratio by volume of 1:10. Collagen-induced aggregation The pattern of the decrease in optical density of the platelet suspension is photometrically measured and recorded after the addition of the aggregation-triggering substance. The rate of aggregation is concluded from the angle of inclination of the density curve. The point on the curve where there is maximum light transmittance is used to calculate the optical density. The amount of collagen used is as small as possible but sufficient to produce an irreversible reaction curve. Standard commercial collagen produced by Hormonchemie of Munich is used. Before the addition of the collagen the plasma is incubated for 10 minutes with the substance at 37° C. From the measurements obtained an EC50 is determined graphically, indicating a 50% change in the optical density in terms of the inhibition of aggregation.

A further assay deals with human thrombocytes. Description: Fibrinogen binding to human thrombocytes (125I fibrinogen, gel-filtered platelets). Particulars: ADP, 20 minutes at ambient temperature, read-out: Fibrinogen-binding test IC50. The protocol: 1. Fibrinogen binding to human thrombocytes The blood obtained by puncturing an antecubital vein is anticoagulated with trisodium citrate (final concentration: 13 mM) and centrifuged for 10 minutes at 170×g. The supernatant platelet-rich plasma is poured onto a Sepharose 2B column (Pharmacia) and eluted with a solution of 90 mM common salt, 14 mM trisodium citrate, 5 mM glucose and 50 mM Tris(hydroxymethyl)aminomethane, adjusted to pH 7.4. The gel-filtered platelets (GFP) appearing before the plasma proteins are used for the binding experiments. 50 μl of a 60 mM calcium chloride solution, 50 μl of a 0.6 mM adenosine diphosphate solution, 100 μl of substance solution or solvent and 50 μl of fibrinogen solution (containing 3 μg of ^125 I fibrinogen) are added to 750 μl of GFP and incubated for 20 minutes at ambient temperature. The non-specific binding is determined in the presence of 3 mg/ml of cold fibrinogen. 900 μof the incubated material are carefully pipetted onto 250 μof silicon oil (AP 38: AR 20, 1:2 v/v, Wacker Chemie) in Eppendorf tubes and centrifuged for 2 minutes at 10,000×g. The aqueous supernatant and part of the oil are drawn off, the tips of the tubes are cut off together with the platelet pellet and the quantity of bound fibrinogen is determined in a gamma counter. The concentration of substance which brings about a 50% inhibition in fibrinogen binding is determined from a series of concentrations and is given as the IC50 value.

Counter-ions that a name gives are not always drawn.

`COC(=O)CCc1ccc(-n2nnc(-c3ccc(C(=N)N)cc3)n2)cc1` [2(3), 5-(4-amidino-phenyl)-2-[4-(2-methoxycarbonyl-ethyl)-phenyl]-tetrazole-hydrochloride] returned an EC50 in assay [1] of 1600 nM. Further, the IC50 with human thrombocytes turned out to be 140 nM.

`N=C(N)c1ccc(-c2c[nH]c(-c3ccc(CCC(=O)O)cc3)n2)cc1` [1(7), 4-(4-amidino-phenyl)-2-[4-(2-carboxy-ethyl)-phenyl]-imidazole]: a half-maximal effect in assay [1] (EC50) was put at 580 nM. In the assay with human thrombocytes, the IC50 turned out to be 210 nM.

In the case of `N=C(N)c1ccc(-c2n[nH]c(-c3ccc(CCC(=O)O)cc3)n2)cc1` [1(8), 3-(4-amidino-phenyl)-5-[4-(2-carboxy-ethyl)-phenyl]-1,2,4-triazole], the EC50 in assay [1] amounted to 4100 nM. Further, the IC50 in the assay on human thrombocytes is 460 nM.

Compound `N=C(N)c1ccc(-c2ccc(-n3cc(CCC(=O)O)c4ccccc43)nn2)cc1` [1(37), 1-[6-(4-amidino-phenyl)-3-pyridazinyl]-3-(2-carboxy-ethyl)-indole] had an EC50 in assay [1] of 2400 nM. For the same compound, the IC50 in the assay on human thrombocytes is 150 nM.

In the case of `N=C(N)c1ccc(-c2ccc(-c3nnn(CCC(=O)O)n3)cc2)cc1` [1(4), 5-(4-amidino-4'-biphenylyl)-2-(2-carboxy-ethyl)-tetrazole], the EC50 in assay [1] is 290 nM. Besides, the IC50 in the assay on human thrombocytes is 44 nM.

Compound `N=C(N)c1ccc(-c2ccc(-c3oc(CCC(=O)O)cc3C(=O)O)cc2)cc1` [1(128), 2-(4-amidino-4'-biphenyl)-3-carboxy-5-(2-carboxy-ethyl)-furan] yielded an EC50 in assay [1] of 9000 nM. The IC50 in the assay with human thrombocytes was determined as 3500 nM.

Turning to `COC(=O)CCn1nnc(-c2ccc(-c3ccc(C(=N)N)cc3)cc2)n1` [2(4), 5-(4-amidino-4'-biphenylyl)-2-(2-methoxycarbonyl-ethyl)-tetrazole-hydrochloride], in assay [1], the EC50 turned out to be 370 nM. The IC50 in the assay with human thrombocytes was 490 nM.

For `COC(=O)C(O)Cc1cn(-c2ccc(-c3ccc(C(=N)N)cc3)nn2)cn1` (stereo not shown) [2(1), 1-[6-(4-amidino-phenyl)-3-pyridazinyl]-4-(2-hydroxy-2-methoxycarbonyl-ethyl)-imidazole], the EC50 in assay [1] was 180 nM.

Turning to `Cn1cc(-c2ccc(C(=N)N)cc2)nc1-c1ccc(CCC(=O)O)cc1` [1(6), 4-(4-amidino-phenyl)-2-[4-(2-carboxy-ethyl)-phenyl]-1-methyl-imidazole], in assay [1], the EC50 stood at 90 nM. The IC50 in the assay on human thrombocytes was determined as 25 nM.

`COC(=O)CCc1cc(C(=O)OC)c(-c2ccc(-c3ccc(C(=N)N)cc3)cc2)o1` [2(126), 2-(4-amidino-4'-biphenylyl)-3-methoxycarbonyl-5-(2-methoxycarbonyl-ethyl)-furan-hydrochloride] gave an EC50 in assay [1] of 22000 nM. For the same compound, the IC50 with human thrombocytes amounted to 1400 nM.

In assay [1], `COC(=O)CCc1ccc(-c2nc(-c3ccc(C(=N)N)cc3)c[nH]2)cc1` [2(7), 4-(4-amidino-phenyl)-2-[4-(2-methoxycarbonyl-ethyl)-phenyl]-imidazole-hydrochloride] returned an EC50 of 800 nM. The IC50 in the assay on human thrombocytes was 17000 nM.

`COC(=O)CCc1cn(-c2ccc(-c3ccc(C(=N)N)cc3)nn2)c2ccccc12` [2(37), 1-[6-(4-amidino-phenyl)-3-pyridazinyl]-3-(2-methoxycarbonyl-ethyl)-indole] had an EC50 in assay [1] of 6100 nM. Also, the IC50 with human thrombocytes amounted to 6200 nM.

Turning to `COC(=O)CCc1nnc(-c2ccc(-c3ccc(C(=N)N)cc3)cc2)s1` [2(20), 2-(4-amidino-4'-biphenylyl)-5-(2-methoxycarbonyl-ethyl)-1,3,4-thiadiazole], in assay [1], a half-maximal response (EC50) required 280 nM. In addition, in the assay on human thrombocytes, the half-inhibitory concentration (IC50) worked out at 4900 nM.

`COC(=O)c1cc(CCC(=O)O)oc1-c1ccc(-c2ccc(C(=N)N)cc2)cc1` [1(127), 2-(4-amidino-4'-biphenyl)-5-(2-carboxy-ethyl)-3-methoxycarbonyl-furan] returned an EC50 in assay [1] of 14000 nM. Moreover, the IC50 with human thrombocytes was determined as 2500 nM.

In assay [1], `N=C(N)c1ccc(-c2nnc(-c3ccc(CCC(=O)O)cc3)s2)cc1` [1(10), 2-(4-amidino-phenyl)-5-[4-(2-carboxy-ethyl)-phenyl]-1,3,4-thiadiazole] yielded an EC50 of 9500 nM. In addition, in the assay with human thrombocytes, the IC50 was 2000 nM.

`N=C(N)c1ccc(-c2ccc(-n3cnc(CC(C(=O)O)N(Cc4ccccc4)Cc4ccccc4)c3)nn2)cc1` (stereo not shown) [1(35), 1-[6-(4-amidino-phenyl)-3-pyridazinyl]-4-(2-carboxy-2-dibenzylamino-ethyl)-imidazole]: in assay [1], the half-maximal effective concentration (EC50) is 6900 nM. Further, the IC50 in the assay on human thrombocytes turned out to be 2400 nM.

Consider `COC(=O)CSc1nc(-c2ccc(-c3ccc(C(=N)N)cc3)cc2)n[nH]1` [2(39), 3-(4-amidino-4'-biphenylyl)-5-methoxycarbonyl-methylthio-1,2,4-triazole], for which the EC50 in assay [1] stood at 5400 nM. This counts as single-digit micromolar.

`COC(=O)CCc1cn(-c2ccc(-c3ccc(C(=N)N)cc3)nn2)cn1` [Example 2, 1-[6-(4-Amidino-phenyl)-3-pyridazinyl]-4-(2-methoxy-carbonyl-ethyl)-imidazole] returned an EC50 in assay [1] of 2200 nM. In addition, in the assay with human thrombocytes, the IC50 was 510 nM.

The compound `COC(=O)C(N)Cc1cn(-c2ccc(-c3ccc(C(=N)N)cc3)nn2)cn1` (stereo not shown) [2(2), 1-[6-(4-amidino-phenyl)-3-pyridazinyl]-4-(2-amino-2-methoxycarbonyl-ethyl)-imidazole-tris-trifluoroacetate] had an EC50 in assay [1] of 350 nM. Also, the IC50 with human thrombocytes came out at 340 nM.

With `N=C(N)c1ccc(-c2ccc(-c3nnc(CCC(=O)O)s3)cc2)cc1` [1(20), 2-(4-amidino-4'-biphenylyl)-5-(2-carboxy-ethyl)-1,3,4-thiadiazole], the midpoint of the response in assay [1], the EC50, lay at 290 nM. Besides, the IC50 with human thrombocytes was 65 nM.

In the case of `COC(=O)CCc1ccc(-c2nc(-c3ccc(C(=N)NC(=O)OC)cc3)cn2C)cc1` [4(1), 4-(4-methoxycarbonylamidino-phenyl)-2-[4-(2-methoxycarbonyl-ethyl)-phenyl]-1-methyl-imidazole], the IC50 in the assay with human thrombocytes was found to be 1500 nM.

As to `COC(=O)CCc1ccc(-c2nc(-c3ccc(C(=N)N)cc3)cs2)cc1` [2(5), 4-(4-amidino-phenyl)-2-[4-(2-methoxycarbonyl-ethyl)-phenyl]-thiazole-hydrochloride], the EC50 in assay [1] was found to be 7500 nM. Also, the half-inhibitory concentration (IC50) in the assay with human thrombocytes worked out at 3100 nM.

Consider `NCc1ccc(-c2ccc(-n3cnc(CC(N)C(=O)O)c3)nn2)cc1` (stereo not shown) [1(134), 4-(2-amino-2-carboxy-ethyl)-1-[6-(4-aminomethyl-phenyl)-3-pyridazinyl]-imidazole-dihydrochloride], for which the EC50 in assay [1] is 510 nM. The IC50 in the assay with human thrombocytes was determined as 460 nM.

As to `COC(=O)CCc1ccc(-c2nc(-c3ccc(C(=N)N)cc3)cn2C)cc1` [2(6), 4-(4-amidino-phenyl)-2-[4-(2-methoxycarbonyl-ethyl)-phenyl]-1-methyl-imidazole-hydrochloride], a half-maximal response in assay [1] (EC50) required 210 nM. Besides, the IC50 with human thrombocytes stood at 4300 nM.

In the case of `N=C(N)c1ccc(-c2nnc(-c3ccc(CCC(=O)O)cc3)o2)cc1` [1(9), 2-(4-amidino-phenyl)-5-[4-(2-carboxy-ethyl)-phenyl]-1,3,4-oxadiazole], in assay [1], the EC50 amounted to 8500 nM. In the assay with human thrombocytes, the IC50 came out at 4200 nM.

Take `COC(=O)CCc1ccc(-c2nnc(-c3ccc(C(=N)N)cc3)s2)cc1` [2(10), 2-(4-amidino-phenyl)-5-[4-(2-methoxycarbonyl-ethyl)-phenyl]-1,3,4-thiadiazole]: it took 220 nM to reach a half-maximal effect in assay [1] (EC50).

With `COC(=O)CCc1ccc(-c2nc(-c3ccc(C(=N)NC(=O)OC)cc3)c[nH]2)cc1` [4(2), 4-(4-methoxycarbonylamidino-phenyl)-2-[4-(2-methoxycarbonyl-ethyl)-phenyl]-imidazole], in the assay on human thrombocytes, the 50% inhibitory concentration (IC50) amounted to 1800 nM.

Broadly, the EC50 is the concentration that produces a half-maximal response. Broadly, the IC50 is the concentration needed to halve the response being measured.
